Like-named read-outs stand apart in the source and are kept apart here.
Assays:
[1] = target: KRAS G12C (Homo sapiens, UniProt P01116, G12C); assay: KRAS G12C GDP-GTP exchange assay (bodipy-GDP for GppNHp, with SOS1); type: biochemical; parameters: G12C_exchange (KRAS_G12C exchange assay IC50): scale not given here; conditions: 2.5 nM bodipy-loaded KRAS G12C, 2 hours pre-incubation with inhibitor, 2 hours after GppNHp-SOS1; for IC50: read-out: G12C_exchange (KRAS_G12C exchange assay IC50)
Description: The inhibitor potency of the exemplified compounds was determined in a fluorescence based guanine nucleotide exchange assay, which measures the exchange of bodipy-GDP (fluorescently labeled GDP) for GppNHp (Non-hydrolyzable GTP analog) to generate the active state of KRAS in the presence of SOS1 (guanine nucleotide exchange factor). Inhibitors were serially diluted in DMSO and a volume of 0.1 μL was transferred to the wells of a black low volume 384-well plate. 5 μL/well volume of bodipy-loaded KRAS G12C diluted to 5 nM in assay buffer (25 mM Hepes pH 7.5, 50 mM NaCl, 10 mM MgCl2 and 0.01% Brij-35) was added to the plate and pre-incubated with inhibitor for 2 hours at ambient temperature. Appropriate controls (enzyme with no inhibitor or with a G12C inhibitor (AMG-510)) were included on the plate. The exchange was initiated by the addition of a 5 μL/well volume containing 1 mM GppNHp and 300 nM SOS1 in assay buffer. The 10 μL/well reaction concentration of the bodipy-loaded KRAS G12C, GppNHp, and SOS1 were 2.5 nM, 500 uM, and 150 nM, respectively. The reaction plates were incubated at ambient temperature for 2 hours, a time estimated for complete GDP-GTP exchange in the absence of inhibitor. For the KRAS G12D and G12V mutants, similar guanine nucleotide exchange assays were used with 2.5 nM as final concentration for the bodipy loaded KRAS proteins and with 4 hours and 3 hours incubation after adding GppNHp-SOS1 mixture for G12D and G12V respectively. A cyclic peptide described to selectively bind G12D mutant (Sakamoto et al., BBRC 484.3 (2017), 605-611) or internal compounds with confirmed binding were used as positive controls in the assay plates. Fluorescence intensities were measured on a PheraStar plate reader instrument (BMG Labtech) with excitation at 485 nm and emission at 520 nm.
Either GraphPad prism or XLfit was used to analyze the data. The IC50 values were derived by fitting the data to a four parameter logistic equation producing a sigmoidal dose-response curve with a variable Hill coefficient. Prism equation: Y=Bottom+(Top−Bottom)/(1+10^((Log IC50−X)*Hill slope)); XLfit equation: Y=(A+((B−A)/(1+((X/C)^D)))) where X is the logarithm of inhibitor concentration and Y is the response.

[2] = test system: MIA PaCa-2 (KRAS G12C) cells; assay: KRAS_G12C cellular pERK HTRF assay; type: cell-based, human; conditions: phospho-ERK1/2 HTRF, 4 hours incubation, read-out: G12C_pERK (KRAS_G12C pERK assay IC50)
Description: MIA PaCa-2 (KRAS G12C; ATCC® CRL-1420), A427 (KRAS G12D; ATCC® HTB53), HPAF-II (KRAS G12D; ATCC® CRL-1997) and NCI-H838 (KRAS WT; ATCC® CRL-5844) cells are purchased from ATCC and maintained in RPMI 1640 media supplemented with 10% FBS (Gibco/Life Technologies). The cells are plated at 5000 cells per well (8 uL) into Greiner 384-well low volume, flat-bottom, tissue culture treated white plates and incubated overnight at 37° C., 5% CO2. The next morning, test compound stock solutions are diluted in media at 3× the final concentration, and 4 uL are added to the cells. The plate is mixed by gentle rotation for 30 seconds (250 rpm) at room temperature. The cells are incubated with the KRAS G12C and G12D compounds for 4 hours or 2 hours respectively at 37° C., 5% CO2.
4 uL of 4× lysis buffer with blocking reagent (1:25) (Cisbio) are added to each well and plates are rotated gently (300 rpm) for 30 minutes at room temperature. 4 uL per well of Cisbio anti Phospho-ERK 1/2 d2 is mixed with anti Phospho-ERK 1/2 Cryptate (1:1) are added to each well, mixed by rotation and incubated overnight in the dark at room temperature. Plates are read on the Pherastar plate reader at 665 nm and 620 nm wavelengths. IC50 determination is performed by fitting the curve of inhibitor percent inhibition versus the log of the inhibitor concentration using the GraphPad Prism 7 software.

KRAS G12C, sequence (P01116 1-188 isoform P01116-2 G12C): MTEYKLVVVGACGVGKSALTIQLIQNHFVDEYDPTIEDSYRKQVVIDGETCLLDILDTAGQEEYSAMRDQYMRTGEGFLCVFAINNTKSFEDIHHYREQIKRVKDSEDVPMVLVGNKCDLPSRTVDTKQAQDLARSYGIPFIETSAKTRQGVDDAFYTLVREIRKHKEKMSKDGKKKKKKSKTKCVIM

Row | SMILES | IC50 [1] [µM] | IC50 ([2]; Homo sapiens, MIA PaCa-2) [µM] | IC50 [2] [µM] | G12C_exchange (KRAS_G12C exchange assay IC50) [1]
1 | C=CC(=O)N1CC[C@H](n2ncc3c(N4CC(N(C)C)C4)nc4c(F)c(-c5c(C)c(Cl)cc6[nH]ncc56)c(Cl)cc4c32)C[C@H]1CC#N (single isomer, unassigned) [Example 3a] | ≤ 0.1 | ≤ 0.1 | – | –
2 | C=CC(=O)N1CC[C@H](n2ncc3c(N4CC(N(C)C)C4)nc4c(F)c(-c5c(C)c(Cl)cc6[nH]ncc56)c(Cl)cc4c32)C[C@H]1CC#N (single isomer, unassigned) [Example 3b] | ≤ 0.1 | – | ≤ 0.1 | –
3 | Cc1c(Cl)cc2[nH]ncc2c1-c1c(Cl)cc2c(nc(N3CC(N(C)C)C3)c3cnn([C@H]4CCN(C(=O)/C=C/CN(C)C)[C@H](CC#N)C4)c32)c1F (single isomer, unassigned) [Example 4a] | ≤ 0.1 | ≤ 0.1 | – | –
4 | Cc1c(Cl)cc2[nH]ncc2c1-c1c(Cl)cc2c(nc(N3CC(N(C)C)C3)c3cnn([C@H]4CCN(C(=O)/C=C/CN(C)C)[C@H](CC#N)C4)c32)c1F (single isomer, unassigned) [Example 4b] | – | – | – | ††
5 | COC/C=C/C(=O)N1CC[C@H](n2ncc3c(N4CC(N(C)C)C4)nc4c(F)c(-c5c(C)c(Cl)cc6[nH]ncc56)c(Cl)cc4c32)C[C@H]1CC#N (single isomer, unassigned) [Example 5a] | ≤ 0.1 | ≤ 0.1 | – | –
6 | COC/C=C/C(=O)N1CC[C@H](n2ncc3c(N4CC(N(C)C)C4)nc4c(F)c(-c5c(C)c(Cl)cc6[nH]ncc56)c(Cl)cc4c32)C[C@H]1CC#N (single isomer, unassigned) [Example 5b] | – | – | – | ††
7 | Cc1c(Cl)cc2[nH]ncc2c1-c1c(Cl)cc2c(nc(N3CC(N(C)C)C3)c3cnn([C@H]4CCN(C(=O)/C=C/CF)[C@H](CC#N)C4)c32)c1F (single isomer, unassigned) [Example 6a] | ≤ 0.1 | ≤ 0.1 | – | –
8 | Cc1c(Cl)cc2[nH]ncc2c1-c1c(Cl)cc2c(nc(N3CC(N(C)C)C3)c3cnn([C@H]4CCN(C(=O)/C=C/CF)[C@H](CC#N)C4)c32)c1F (single isomer, unassigned) [Example 6b] | – | – | – | ††
9 | Cc1c(Cl)cc2[nH]ncc2c1-c1c(Cl)cc2c(nc(N3CC(N(C)C)C3)c3cnn([C@H]4CCN(C(=O)/C=C/C(F)F)[C@H](CC#N)C4)c32)c1F (single isomer, unassigned) [Example 7a] | ≤ 0.1 | ≤ 0.1 | – | –
10 | Cc1c(Cl)cc2[nH]ncc2c1-c1c(Cl)cc2c(nc(N3CC(N(C)C)C3)c3cnn([C@H]4CCN(C(=O)/C=C/C(F)F)[C@H](CC#N)C4)c32)c1F (single isomer, unassigned) [Example 7b] | – | – | – | ††
11 | C=C(F)C(=O)N1CC[C@H](n2ncc3c(N4CC(N(C)C)C4)nc4c(F)c(-c5c(C)c(Cl)cc6[nH]ncc56)c(Cl)cc4c32)C[C@H]1CC#N (single isomer, unassigned) [Example 8a] | ≤ 0.1 | ≤ 0.1 | – | –
12 | C=C(F)C(=O)N1CC[C@H](n2ncc3c(N4CC(N(C)C)C4)nc4c(F)c(-c5c(C)c(Cl)cc6[nH]ncc56)c(Cl)cc4c32)C[C@H]1CC#N (single isomer, unassigned) [Example 8b] | – | – | – | ††
13 | CC#CC(=O)N1CC[C@H](n2ncc3c(N4CC(N(C)C)C4)nc4c(F)c(-c5c(C)c(Cl)cc6[nH]ncc56)c(Cl)cc4c32)C[C@H]1CC#N (single isomer, unassigned) [Example 9a] | ≤ 0.1 | ≤ 0.1 | – | –
14 | CC#CC(=O)N1CC[C@H](n2ncc3c(N4CC(N(C)C)C4)nc4c(F)c(-c5c(C)c(Cl)cc6[nH]ncc56)c(Cl)cc4c32)C[C@H]1CC#N (single isomer, unassigned) [Example 9b] | – | – | – | ††
15 | Cc1c(Cl)cc2[nH]ncc2c1-c1c(Cl)cc2c(nc(N3CC(C)(N(C)C)C3)c3cnn([C@H]4CCN(C(=O)/C=C/CN(C)C)[C@H](CC#N)C4)c32)c1F (single isomer, unassigned) [Example 10a] | ≤ 0.1 | ≤ 0.1 | – | –
16 | Cc1c(Cl)cc2[nH]ncc2c1-c1c(Cl)cc2c(nc(N3CC(C)(N(C)C)C3)c3cnn([C@H]4CCN(C(=O)/C=C/CN(C)C)[C@H](CC#N)C4)c32)c1F (single isomer, unassigned) [Example 10b] | – | – | – | ††
17 | CC#CC(=O)N1CC[C@H](n2ncc3c(N4CC(C)(N(C)C)C4)nc4c(F)c(-c5c(C)c(Cl)cc6[nH]ncc56)c(Cl)cc4c32)C[C@H]1CC#N (single isomer, unassigned) [Example 11a] | ≤ 0.1 | ≤ 0.1 | – | –
18 | CC#CC(=O)N1CC[C@H](n2ncc3c(N4CC(C)(N(C)C)C4)nc4c(F)c(-c5c(C)c(Cl)cc6[nH]ncc56)c(Cl)cc4c32)C[C@H]1CC#N (single isomer, unassigned) [Example 11b] | – | – | – | ††
19 | COC/C=C/C(=O)N1CC[C@H](n2ncc3c(N4CC(C)(N(C)C)C4)nc4c(F)c(-c5c(C)c(Cl)cc6[nH]ncc56)c(Cl)cc4c32)C[C@H]1CC#N (single isomer, unassigned) [Example 12a] | ≤ 0.1 | ≤ 0.1 | – | –
20 | COC/C=C/C(=O)N1CC[C@H](n2ncc3c(N4CC(C)(N(C)C)C4)nc4c(F)c(-c5c(C)c(Cl)cc6[nH]ncc56)c(Cl)cc4c32)C[C@H]1CC#N (single isomer, unassigned) [Example 12b] | – | – | – | ††
21 | Cc1c(Cl)cc2[nH]ncc2c1-c1c(Cl)cc2c(nc(N3CC(C)(N(C)C)C3)c3cnn([C@H]4CCN(C(=O)/C=C/CF)[C@H](CC#N)C4)c32)c1F (single isomer, unassigned) [Example 13b] | – | – | – | ††
22 | Cc1c(Cl)cc2[nH]ncc2c1-c1c(Cl)cc2c(nc(N3CC(C)(N(C)C)C3)c3cnn([C@H]4CCN(C(=O)/C=C/C(F)F)[C@H](CC#N)C4)c32)c1F (single isomer, unassigned) [Example 14b] | – | – | – | ††
23 | C=C(F)C(=O)N1CC[C@H](n2ncc3c(N4CC(C)(N(C)C)C4)nc4c(F)c(-c5c(C)c(Cl)cc6[nH]ncc56)c(Cl)cc4c32)C[C@H]1CC#N (single isomer, unassigned) [Example 15b] | – | – | – | ††
24 | C=CC(=O)N1CC[C@H](n2ncc3c(N4CC(C)(N(C)C)C4)nc4c(F)c(-c5c(C)c(Cl)cc6[nH]ncc56)c(Cl)cc4c32)C[C@H]1CC#N (single isomer, unassigned) [Example 16b] | – | – | – | ††
25 | CC#CC(=O)N1CC[C@H](n2ncc3c(OC[C@@H]4CCCN4C)nc4c(F)c(-c5c(C)c(Cl)cc6[nH]ncc56)c(Cl)cc4c32)C[C@H]1CC#N (single isomer, unassigned) [Example 18b] | – | – | – | ††
26 | COC/C=C/C(=O)N1CC[C@H](n2ncc3c(OC[C@@H]4CCCN4C)nc4c(F)c(-c5c(C)c(Cl)cc6[nH]ncc56)c(Cl)cc4c32)C[C@H]1CC#N (single isomer, unassigned) [Example 19b] | – | – | – | ††
27 | C=CC(=O)N1CC[C@H](n2ncc3c(OC[C@@H]4CCCN4C)nc4c(F)c(-c5c(C)c(Cl)cc6[nH]ncc56)c(Cl)cc4c32)C[C@H]1CC#N (single isomer, unassigned) [Example 20b] | ≤ 0.1 | – | – | –
